In patent publication US20060045883A1, “Anti-cancer vaccines” (priority 2004, published 2006):
Where “and” joins values, the source holds several entries; their conditions need not be identical. Identical values can stand only once.

What was measured:
HLA-A2.1 = HLA-A2.1 (Homo sapiens, UniProt P04439, D140Y/D185E/D98H/E176V/E277Q/G131W/G231S/I119V/I121R/I166T/I218V/L300P/L318F/N151K/N90K/P208A/P217A/Q86G/Q94H/R138H/R169H/T345S); assay: HLA-A2.1 surface expression on peptide-coated T2 cells by indirect flow cytometry (BB7.2); type: binding; conditions: for surface HLA-A2.1 expression on peptide-pulsed T2 cells: compared with T2 cells with no added peptide / positive control influenza peptide; for Median Channel of Fluorescence of HLA-A2 Expression on T2: peptide-coated T2 cells, background HLA-A2 22
[1] = system: AML colony-forming units (CFU-GM); assay: Colony inhibition assay with MY4 peptide-pulsed CTL; type: cell-based, human
From the text: In contrast there was no inhibition of CFUGM from normal marrow, D1 and D2, the corresponding HLA identical marrow donors for P1 and P2.

T2 cells = assay: Peptide-specific cytotoxicity of peptide-elicited CTL lines against peptide-loaded T2 cells; conditions: T2 cells loaded with the same peptide; 4-hr assay, varying E:T
Protocol: CTL cytotoxicity assay. A semiautomated minicytotoxicity assay was used to determine specific lysis as described previously (Molldrem, 2000; Molldrem et al., 1996). Briefly, effector cells were prepared in doubling dilutions from 6×10^3 to 25×10^3 cells/well and were plated in 40 μl, 60-well Terasaki trays (Robbins Scientific, Sunnyvale, Calif., USA) with six replicates per dilution. Target cells (T2 cells, marrow-derived leukemic cells, or BM from a healthy donor) at a concentration of 2×10^6 cells/ml were stained with 10 μg/ml of Calcein-AM (Molecular Probes Inc.) for 60 min at 37° C. After washing three times in CM plus 10% AB, target cells were resuspended at 10^5 cells/ml, and 10^3 target cells in 10 μl medium were added to each well containing effector cells. Wells with target cells alone and medium alone were used for maximum (max) and minimum (min.) fluorescence emission, respectively. After 4 hr incubation at 37° C. in 5% CO2, 5 μl FluoroQuench (One Lambda Inc., Canoga Park, Calif., USA) was added to each well, and the trays were centrifuged for 1 min at 60 g before measurement of fluorescence using an automated CytoFluor II plate reader (PerSeptive Biosystems, Framingham, Mass., USA). The percentage of lysis was calculated as follows: % lysis={1−[(mean experimental mission−mean min.)/(mean max−mean min.)]}×100%.
Induction of Primary CTL responses to peptides. These peptides were next used to stimulate T cells specific for peptide-coated targets. PBMC from a normal healthy donor heterozygous for HL-A2.1 were stimulated with peptide-pulsed T2 cells. […] Briefly, T2 cells (which co-express the costimulatory molecule B7.1) were washed 3 times in serum-free RPMI culture media supplemented with penicillin/streptomycin and glutamine (CM) and incubated with peptide at 20 μg/mL for 2 hr in CM. The peptide loaded T2 cells were then irradiated with 7500 cGy, washed once, and suspended with freshly isolated PBMC at a 1:1 ratio in CM supplemented with 10% human serum (HS) (Sigma, St. Louis, Mo.). After 7 days in culture, a second stimulation was performed and the following day, 60 IU/mL of recombinant human interleukin-2 (rhIL2) (Biosource International, Camarillo, Calif.) was added. After 14 days in culture a third stimulation was performed, followed on day 15 by addition of rhIL-2. A fourth stimulation was performed on day 21 followed on day 22 by the addition of rhIL2. After a total of 27 days in culture, the peptide-stimulated T cells were harvested and tested for peptide-specific cytotoxicity toward Calcein AM-labeled T2 cells, leukemia cell lines, and fresh human leukemia cells.
The five MPO peptides discussed above, were used to stimulate T cells specific for peptide-coated targets. […]

[2] = system: human myeloid leukemia cells; assay: Cytotoxicity of peptide-elicited CTL lines against fresh myeloid leukemia marrow and normal marrow; type: cell-based
From the text: (§1) PR1 specific CTL preferentially lyse human myeloid leukemia cells. It was next determined whether the PR1-specific CTL line was capable of lysing allogeneic human myeloid leukemia cells from HLA-A2.1 positive individuals. As controls, two cell lines expressing low levels of Pr3 were used: HLA-A2.1 transfected K562 cells and U937 cell line which lack HLA-A2.1 and would therefore be incapable of presenting peptides in an HLA-A2.1-restricted manner. Cryopreserved bone marrow cells from patients P1-P4, and marrow cells from a healthy normal volunteer (D2, a bone marrow donor for an allogeneic bone marrow transplant performed on patient P3) were thawed and used as targets for the PR1-specific CTL line.
(§2) It was next determined whether the MY2 and MY4-specific CTL lines were capable of lysing allogeneic human myeloid leukemia cells from HLA-A2.1 positive individuals. The targets were BM cells from pre-transplant HLA-A2.1-positive AML patients. As controls, BM cells from HLA-A2.1-negative AML patients, BM from HLA-A2.1-positive healthy donors and two cell lines expressing low levels of MPO were used: HLA-A2.1 transfected K562 cells and the U937 cell line which lacks HLA-A2.1 and would therefore be incapable of presenting peptides in an HLA-A2.1-restricted manner.

[3] = as above; type: cell-based, human
From the text: as §1, §2

HLA-A2 = molecular target: T1, HLA-A2 (Homo sapiens, UniProt P04439, D140Y/D185E/D98H/E176V/E277Q/G131W/G231S/I119V/I121R/I166T/I218V/L300P/L318F/N151K/N90K/P208A/P217A/Q86G/Q94H/R138H/R169H/T345S); assay: Peptide-binding assay: stabilization of HLA-A2 on the surface of T2 cells, compared to PR1
T1 construct: measure HLA-A2.1 surface expression on the A2+ T2 cell line coated with the peptide; host or cells: T2 cells
From the text: (§3) Nonameric peptides derived from cyclin E1 and cyclin E2 and predicted to bind to the HLA-A2 allele have similar amino acid sequences, differing only at position 7. Thus, the binding of CCNE1144-152 (cyclin E1 derived) and CCNE2144-152 (cyclin E2 derived) was compared to that of PR1 by a peptide-binding assay. The ability of CCNE1144-152 and CCNE2144-152 to stabilize HLA-A2 on the surface of T2 cells was almost the same as that of PR1 (FI CCNE1144-152/FI PR1=1.008, FI CCNE2144-152/FI PR1=1.189). […] In 3 of 7 donors, CCNE1144-152-stimulated CTL lines killed both CCNE1144-152 and CCNE 2144-152-pulsed T2 cells but not non-peptide-pulsed T2 cells and irrelevant peptide-pulsed T2 cells. In 4 of 7 same donors, CCNE2144-152-stimulated CTL lines killed both CCNE2144-152 and CCNE1144-152-pulsed T2 cells but not non-peptide-pulsed T2 cells and irrelevant peptide-pulsed T2 cells.

peptide-pulsed T2 cells = assay: Elicitation of cyclin E peptide-specific CTL with peptide-pulsed T2 cells; type: cell-based, human; conditions: PBMCs from 7 HLA-A2 positive normal donors
From the text: as §3

[4] = system: PR1-CTL from a healthy donor; assay: Annexin V apoptosis of PR1-CTL challenged with peptide-pulsed T2 cells; type: cell-based, human; conditions: for apoptosis of high avidity PR1-CTL: T2 cells pulsed with 20 μM peptide, Annexin V 16 to 18 hr
From the text: High PR1 concentration and proteinase 3-overexpressing CML cells induce apoptosis of high avidity PR1-specific CTL. […] All high avidity PR1-CTL exposed to high dose PR1 were dead after 36 to 48 hr of co-culture.

NE-HMy.CIR-A2 = assay: Proliferation (BrDU incorporation) of PR1-specific CTL lines with NE-transfected B cells; type: cell-based, human; conditions: CTL lines from two healthy donors
From the text: (§4) The leukemia-associated antigen PR1 is derived from both proteinase 3 and neutrophil elastase proteins. The inventors have shown that killing of leukemia cells by PR1-specific CTL correlates with P3 overexpression. However, the PR1 sequence is also contained within neutrophil elastase (NE), which is also aberrantly expressed in leukemia cells. To determine whether PR1 is processed and presented from either protein, P3- and NE-transfected B cells were used as target cells in a proliferation assay with PR1-specific T cells. Full-length P3 and NE cDNA was cloned from the promyelocytic HL-60 cell line based on published sequences. The sequences were subcloned into an EGFP-containing vector (pCMS-EGFP) with a CMV promoter to drive constitutive expression. The B cell line, HMy-CIR, previously stably transfected with the HLA-A*0201 gene, was transfected with P3-pCMS-EGFP and NE-pCMS-EGFP by electroporation for 24 hr. GFP-expressing cells (P3-HMy.CIR-A2 and NE-HMy.CIR-A2, respectively) were selected by FACSorting and high transfection levels were confirmed by fluorescence microscopy. […] By contrast, NE transcript numbers from a transfected clone were 7-fold less than in HL-60 cells. Western blotting confirmed protein expression in the NE-HMy.CIR-A2-transfected cells, although expression was similarly less than in HL-60 cells. […]

[5] = system: P3-HMy.CIR-A2 target cells; assay: Proliferation (BrDU incorporation) of PR1-specific CTL lines with P3-transfected B cells; type: cell-based, human; conditions: CTL lines from two healthy donors
From the text: as §4

[6] = system: human myeloid leukemia cells; assay: Cytotoxicity of peptide-elicited CTL lines against fresh myeloid leukemia marrow and normal marrow; type: cell-based; remark: listed apart in the source
[7] = system: patients with myeloid leukemia; assay: Phase I/II PR1 peptide vaccine study; type: in vivo, human
Protocol: PR1 peptide is injected subcutaneously in incomplete Freund's adjuvant every 3 weeks for 3 injections to induce a PR1 specific host response against the myeloid leukemia. […] Vaccination at 3 dose levels of peptide with a fixed amount of IFA will be conducted, and stopping criteria will be guided by established toxicity criteria.
HLA-A2^+ patients with CML (interferon-resistant or relapsed after BMT), AML (smoldering relapse or ≧2nd CR) or MDS (RAEB or RAEBt) with no detectable antibodies to proteinase 3 (no detectable cANCA) were eligible. Patients that relapsed after BMT or those ineligible for BMT were also eligible for study. Pregnant patients, HIV+ patients, and those with known vasculitis were excluded. Patients were required to have immunosuppression (i.e. cyclosporine, steroids) discontinued 4 weeks prior to study entry.
Secondarily, clinical responses were assessed by standard criteria with bone marrow biopsy, cytogenetic studies (standard chromosome banding) and molecular studies (PCR for bcr-abl or other known abnormalities such as t(15;17), inv16, etc.) 3 weeks after the last vaccination. Patients were seen and evaluated in clinic every 3 weeks during the study period. Both vialed PR1 peptide (NSC698102) and the adjuvant (Montanide ISA-51, NSC675756) were used in this study. […]

[8] = system: HMy2.CIR-A2 cells transfected with Pr3; assay: Lysis of Pr3-transfected B cells by PR1 specific CTL; type: cell-based, human; conditions: E:T 25:1
Protocol: Expression of proteinase 3 following transfection into and HMy2.CIR and HMy2.CIR-A2 cells. […] The parental HMy2.CIR cell line, which has lost expression of HLA-A and -B, and the HLA-A2.1-transfected HMy2.CIR cells (named HMy2.CIR-A2), were both transfected with Pr3 as described below.
Ten million HMy2.CIR (ATCC, Rockville, Md.), or 10 million HMy2.CIR-A2 cells were each washed in phosphate buffered saline (PBS) and re-suspended in 0.8 mL of ice-cold PBS and put into an electroporation cuvette with 20 μg of circular plasmid DNA. The mixture was exposed to an electric pulse of 320 volts at 960 microF and incubated on ice for 10 min. Cells were then added to 10 mL of pre-warmed CM. The following day, the CM was replaced. On day 2, cells were grown under selection conditions using 200 μg/mL Zeocin. Following one week of selection, the cells were subcloned by limiting dilution under Zeocin selection, and 6 clones were isolated.
HMy.2.CIR-A2 cells transfected with Pr3 are susceptible to lysis by PR1 specific CTL. It was next determined whether the transfected HMy2.CIR-A2 cells could be lysed by PR1 specific CTL. The PR1 specific CTL were elicited in the manner previously described, and after 22 days in culture were combined at a 25:1 E:T ratio with HMy2.CIR-A2 transfected either with the Pr3-containing vector pRTZ.2, or the empty vector containing the reporter gene, CAT. […]

[9] = system: HLA-A2 transfected K562 leukemic cell line; assay: Killing of leukemic cell line by CCNE1 peptide-stimulated CTL lines; type: cell-based, human
From the text: Thus, each peptide-specific CTLs can recognize both peptides with HLA-A2, but the immunogenicity of each peptide is different between individuals. Moreover, one of 4 CCNE1144-152-stimulated CTL lines which killed CCNE1144-152-pulsed T2 cell killed HLA-A2 transfected K562 leukemic cell line which is over-expressing cyclin E1 protein, but not non-transfected K562 leukemic cell line. Thus, CCNE1144-152-specific CTL can distinguish leukemic cell lines from normal PBMCs. From the data, it was concluded that cyclin E1/E2 derived peptides are potential tumor-antigens, because 1) cyclin E1/E2 are highly over-expressed in hematological malignancy, 2) cyclin E1/E2 peptides can sufficiently bind to HLA-A2 to stimulate CTL and 3) CCLE1144-152 specific CTL preferentially kills leukemic cell lines HLA-A2 restrictively.

## KLNDVLLIQL [PR7V]
HLA-A2.1
  surface HLA-A2.1 expression on peptide-pulsed T2 cells: strong peptide binding

## RLFEQVMRI [MY4]
[1]; normal marrow, D1 and D2 (HLA identical donors)
  inhibition of CFU-GM by MY4 peptide-pulsed CTL: no inhibition
[1]; patient P1 (M2-AML)
  inhibition of CFU-GM by MY4 peptide-pulsed CTL (CTL1): 63%
[1]; patient P2 (M4-AML)
  inhibition of CFU-GM by MY4 peptide-pulsed CTL (CTL1): 34%
T2 cells
  peptide-specific lysis by CTL line generated against the peptide: tested similarly
[2]
  lysis of HLA-A2.1-positive AML marrow cells by peptide-specific CTL: killed AML cells, but not normal cells
[3]
  specific lysis of HLA-A2+ normal BMC by peptide-specific CTL: no lysis of normal BMC

## KLLLALAGL [MY2]
T2 cells
  peptide-specific lysis by CTL line generated against the peptide: high specific lysis
[2]
  lysis of HLA-A2.1-positive AML marrow cells by peptide-specific CTL: readily lysed
[3]
  specific lysis of HLA-A2+ normal BMC by peptide-specific CTL: 45%
[3]; marrow cells from HLA-A2.1-positive normal healthy donor, E:T 20:1
  lysis by MY2-specific CTL lines: 43%

## CCNE2144-152: nonameric peptide derived from cyclin E2, predicted to bind to the HLA-A2 allele (ILLDWLLEV)
HLA-A2
  FI peptide/FI PR1 (HLA-A2 stabilization on T2 cells): 1.189
peptide-pulsed T2 cells
  donors in whom peptide-stimulated CTL lines killed peptide-pulsed T2 cells: 4 of 7

## Influenza nucleoprotein: control influenza peptide, Influenza B nucleoprotein (aa 85-94), known high binding affinity to HLA-A2.1 (KLGEFYNQMM) [reference compound]
HLA-A2.1
  Median Channel of Fluorescence of HLA-A2 Expression on T2: 194
[4]
  apoptosis of high avidity PR1-CTL: no apoptosis was observed

## VLQELNVTV [PR1, HLA-A2.1-restricted nonamer (aa 169-177) derived from proteinase 3]
NE-HMy.CIR-A2
  stimulation indices (SI) of PR1-specific CTL lines: 1.5 and 2.1
HLA-A2.1
  surface HLA-A2.1 expression on peptide-pulsed T2 cells: increased surface HLA-A2.1 expression
  Median Channel of Fluorescence of HLA-A2 Expression on T2: 294
[4]
  apoptosis of high avidity PR1-CTL: underwent apoptosis
[4]; high or low concentrations of PR1
  apoptosis of low avidity PR1-CTL: did not undergo apoptosis
T2 cells
  peptide-specific lysis by CTL line generated against the peptide: high specific lysis
[5]
  stimulation indices (SI) of PR1-specific CTL lines: 1.3 and 2.4
[6]; CTL from patient CML #1, E:T 20:1
  lysis of CML #3 BM cells by CTL elicited with 0.2 μM PR1: 24%±5%
[6]; CTL from patient CML #2, E:T 20:1
  lysis of CML #3 BM cells by CTL elicited with 0.2 μM PR1: 33%±6%
[6]; per cell basis, 4-hr cytotoxicity assay
  fold greater lysis of CML BM cells, CTL elicited with 0.2 μM vs 20 μM PR1: ~2 fold
[7]; 0.25, 0.5 or 1.0 mg s.c. every 3 weeks for 3 injections
  PR1-specific CTL immunity elicited (by tetramer staining): 6 of 9
[7]; 9 patients (1 AML and 1 CML patient)
  complete remissions: 2 patients
[8]; Pr3-transfected cells (clone 1.4)
  specific lysis by PR1 specific CTL: 36%
[8]; normal marrow cells, HL-60, HMy2.CIR with empty vector (CAT), non-transfected parent line
  lysis of negative control targets by PR1 specific CTL: only background lysis
[2]; marrow cells from a patient with CML in blast crisis, E:T 25:1
  specific lysis by CTL specific for PR-1: 73%
[2]; marrow cells of P1 (CML in chronic phase), E:T 6:1
  specific lysis by PR1-specific CTL line: 53%
[3]; marrow cells from normal healthy donor (D2)
  lysis by PR1-specific CTL line: < 20%

## KLNDILLIQL [PR71]
HLA-A2.1
  surface HLA-A2.1 expression on peptide-pulsed T2 cells: strong peptide binding

## RLFPDFFTRV [PR2]
HLA-A2.1
  surface HLA-A2.1 expression on peptide-pulsed T2 cells: increased surface HLA-A2.1 expression
  Median Channel of Fluorescence of HLA-A2 Expression on T2: 273
T2 cells
  peptide-specific lysis by CTL line generated against the peptide: did not demonstrate any significant cytotoxicity

## CCNE1144-152: nonameric peptide derived from cyclin E1, predicted to bind to the HLA-A2 allele
HLA-A2
  FI peptide/FI PR1 (HLA-A2 stabilization on T2 cells): 1.008
[9]
  CTL lines that killed HLA-A2 transfected K562 but not non-transfected K562: one of 4
peptide-pulsed T2 cells
  donors in whom peptide-stimulated CTL lines killed peptide-pulsed T2 cells: 3 of 7
